The test system of data set [1] is high fat, high cholesterol diet rats. Nature of the data set: Rat high fat, high cholesterol diet model (VAP lipid analysis). It is filed as in vivo. The settings on record: HFHC diet rats, once daily p.o. for seven days, compound 8 at 3, 10, 30 mg/kg, Fenofibrate at 2.2, 7.3, 22 mg/kg; for very low-density lipoprotein (VLDL) cholesterol: FIG. 4; for HDL: FIG. 5. As for the experimental part: Compounds were tested for effects on cholesterol and lipid profiles in a rat high fat diet model for example as described in Ghibaudi et al. (2002) Obes Res 10:956-63, Ricci and Levin (2003) Am J Physiol Regul Integr Comp Physiol 285:R610-8, and Gao et al. (2002) 936:87-90. Alternatively, animals were fed either a normal diet or a chow supplemented with added fat and/or cholesterol as described in Krause et al (1994) Pharm Res VoI 29, No. 4, Nishina (1993) J of Lipid Res vol 43. and Gajda et al. (2007) Animal Lab News. Based on the specific chows used in these reports, animals were fed a diet consisting of 40% fat, 1% cholesterol, and 0.5% cholic acid (catalog #D01061201, Research Diets, New Brunswick, N.J. 08901).
After at least a week on this diet, animals (6-8/group) are dosed once daily perorally with 500 uL test compounds in PEG 400. Groups are dosed for at least one week before whole blood samples are taken for analysis. Blood serum is analyzed using Vertical Auto Profile (VAP; Atherotech, Inc., Birmingham, Ala.) analysis similar to as described in Kulkarni (2006) Clin Lab Med 26:787-802.
Fenofibrate (Sigma—Cat# F6020-5G, Lot#017K1401) was tested in this assay at 2.2, 7.3 and 22 mg/kg which were equimolar equivalents (for the fenofibric acid moiety) of Compound 8 dosed at 3, 10 and 30 mg/kg. In these experiments animals (n=6 per group) were fed a high fat high cholesterol chow (HFHC; 40% fat, 1% cholesterol, 0.5% cholic acid) diet for one week before test compound administration. Animals received either vehicle only (PEG 400) or test compound (compound 8 at 3, 10 or 30 mg/kg or fenofibrate at 2.2, 7.3 or 22 mg/kg) for seven days before whole blood samples were taken for analysis.

Data set [2] in a line: Nitric oxide (NOx) level after oral dosing in male rats, Nitrate/Nitrite Colorimetric Assay. It is filed as in vivo, rat. The settings on record: male SD rats, oral gavage; Fenofibrate 24.8 mg/kg, compounds 6, 7, 8 at 32, 34, 33.8 mg/kg; FIG. 2. How it is done: 15 male SD (Sprague Dawley) rats were allowed to acclimate for at least 3 days. Fenofibrate, compounds 6, 7, and 8 were administered via oral gavage at molar equivalent doses of 24.8, 32, 34, 33.8 mg/kg, respectively. Animals were fasted overnight and had their food replaced 4 hours after dosing. Compounds were formulated in 300 μL of 100% PEG400. Animals were euthanized under CO2 at the 24 hr time point. Plasma samples were taken for analytical determination of fenofibric acid from compounds in vacutainers containing sodium fluoride. Serum samples were taken for nitric oxide level determination in BD serum collection tubes.
Fenofibric acid was extracted from the plasma using an acetonitrile protein precipitation method. Samples were run on a Waters Aquity TQD LC-MS/MS and analyzed using the MassLynx software. Nitric Oxide levels were measured in serum using a Nitrate/Nitrite Colorimetric Assay Kit from Caymen Chemicals.

The next data set relates to normotensive rats. In words: Rat normotensive blood pressure model. It counts as in vivo. The settings on record: normotensive conscious SD rats, single oral dose 30 mg/kg, 6 hours monitoring; FIG. 6. The source says:
36 male SD rats were allowed to acclimate for at least 3 days. After conditioning the rats were arterially cannulated and assigned to 4 treatment groups, with the goal of achieving n=6/group.
After the acclimation period, the rats were briefly anesthetized with inhaled isoflurane and implanted a small bore femoral artery cannula to permit CV monitoring under conscious unrestrained conditions as conducted in prior studies. 18 rats were cannulated per day on 2 consecutive days and allowed 2 days of post-operative recovery prior to CV testing. 12 rats per day were monitored for each of 2 consecutive daily test sessions.
On the morning of the test sessions, the rats were placed in individual bell jars and their femoral artery cannulas were attached to pressure transducers. CV monitoring consisted of continuously recording mean arterial pressure (MAP) and spot checking heart rate (HR; every 5 to 7 minutes) prior to and for 6 hours after a single oral treatment as in previous studies.
Also on the morning of testing, 4 oral treatments in 500 μl of 100% PEG 400 were formulated. The rats were allowed about 1 hour of equilibration prior to dosing. Once suitably equilibrated, each rat was dosed with an oral vehicle or a drug, delivered by standard gavage. The CV recording was continued over the 6-hour post-treatment interval, occasional small flushes of heparinized saline (˜0.1 mL; 20 units/mL) were administered into their arterial catheters in order to maintain recording fidelity.
At the conclusion of the 6-hour CV monitoring interval, a terminal ˜0.6 mL arterial blood sample was taken and the serum or plasma was processed.

The next data set concerns rat aortic ring. In words: Thoracic aortic rings assay (vasorelaxation of phenylephrine-contracted rings). It counts as ex vivo tissue. As to conditions: rat thoracic aortic rings contracted with 100 ng/mL phenylephrine; cumulative dosing; FIG. 3. How it is done:
Thoracic aortic rings were dissected from anesthetized (isoflurane) male Sprague-Dawley rats weighing 275-299 g. Tissues were immediately transferred to ice-cold Krebs-Henseleit solution, which had been aerated with 95% O2 and 5% CO2 for 30 minutes. Following removal of connective tissue, aortic sections were cut into 4 rings (˜2 mm each) and suspended on 2 L-shaped hooks, with one hook fixed at the bottom of the tissue bath (Schuler Organ Bath, Harvard Apparatus) and the other connected to a force transducer (F30 Force Transducer, Harvard Apparatus). Baths contained Krebs Henseleit solution (10 mL) heated to 37° C. and aerated with 95% O2 and 5% CO2. Rings were brought to an initial tension of 0.3-0.5 g and gradually raised to a resting tension of 1.0 g over 60 minutes. Rings were rinsed with Krebs Henseleit solution (heated to 37° C. and aerated with 95% 02 and 5% CO2) at 15 minute intervals until a stable baseline was obtained. Rings were considered to be stable after a resting tension of 1.0 g was maintained (for approximately 10 minutes) without need for adjustment. Rings were then contracted with 100 ng/mL phenylephrine by adding 100 uL of a 10 μg/mL phenylephrine stock solution. Tissues achieving a stable contraction were then treated in a cumulative, dose dependent manner with test compounds prepared in dimethylsulfoxide (DMSO). In some cases, tissues were rinsed three times over a 5 minute period with Krebs-Heinseleit's solution (heated to 37° C. and aerated with 95% O2 and 5% CO2), allowed to stabilize at baseline, and then used for characterization of other test articles or DMSO effects. All data were collected using the HSE-ACAD software provided by Harvard Apparatus. Percent relaxation effects were calculated in Microsoft Excel using the recorded tension value of 100 ng/mL phenylephrine treatment as 0% inhibition and treatment with 100 μM 3-isobutyl-1-methylxanthine as 100% inhibition. EC50 values were calculated from concentration-response curves generated with GraphPad Prism Software. […]

A further data set has as its system L-NAME hypertensive rats. Nature of the data set: Rat L-NAME induced hypertension blood pressure model. It counts as in vivo. As to conditions: oral gavage, 6 hours monitoring, compound 8 at 10, 30, 60 mg/kg, Fenofibrate 49.6 mg/kg, FIGS. 7 and 8. As for the experimental part:
L-NAME induced hypertension model was carried out at Pharmoptima. Based on the rats' projected average daily water intake, the NO synthase inhibitor L-NAME, L-NG-nitroarginine methyl ester, which induces hypertension, were dissolved in their drinking water so that the rats self-administered tested compounds for 2 weeks prior to study at the targeted daily L-NAME dosage. The rats' L-NAME/water solution was reformulated every other day to insure potency.
After 2 weeks of oral L-NAME preconditioning, the rats were anesthetized with inhaled isoflurane (3-4% in oxygen) and implanted a small bore femoral artery catheter to permit cardiovascular (CV) monitoring under conscious unrestrained conditions. A total of 36 rats (18 rats/day on two consecutive days) were prepared. The catheters were sealed with sodium heparin to maintain patency.
Allow 2 days of post-operative recovery prior to study, allowing full access to food and water (containing dissolved L-NAME) water.
On the study treatment day, […] (n=6×5 treatments) were set up in bell jars under routine non-fasted conditions. Start recording mean arterial pressure (MAP) and heart rate (HR) from this first set of cannulated rats as per previous studies conducted by PharmOptima. Once stable, the rats were dosed by oral gavage. CV data were recorded from the rats over the ensuing 6 hours. 3 arterial blood samples were taken per rat and the harvested plasma samples were frozen.

As for `CC(C)(Oc1ccc(C(=O)c2ccc(Cl)cc2)cc1)C(=O)OCO/N=[N+](\[O-])N1CCC[C@H]1CO` [Compound 8, (S,Z)-2-((2-(4-(4-chlorobenzoyl)phenoxy)-2-methylpropanoyloxy)methoxy)-1-(2-(hydroxymethyl)pyrrolidin-1-yl)diazene oxide], in data set [1], the “very low-density lipoprotein (VLDL) cholesterol” value is on record as “decreases in very low-density lipoprotein (VLDL) cholesterol” and the HDL result is given as “dose related increases in HDL”. For the same compound, in data set [2], the “nitric oxide levels in the plasma upon dosing” value (“nitric oxide levels” below) is “robust increase in nitric oxide levels”. The blood pressure result in the data set on normotensive rats was “lowering blood pressure”. The vasorelaxant properties result in the data set with rat aortic ring is given as “potent vasorelaxant properties in the nM range”. Further, the blood pressure result in the data set on L-NAME hypertensive rats is given as “lowered blood pressure in an L-NAME model of hypertension in a dose responsive manner”.

Consider `O=[N+]([O-])O[C@H]1CO[C@H]2[C@@H]1OC[C@H]2O[N+](=O)[O-]` [ISDN, isosorbide dinitrate, reference compound], for which the vasorelaxant properties result in the data set with rat aortic ring is given as “active in this assay as a vasorelaxant in the micromolar range”. Also, in the data set with L-NAME hypertensive rats, the blood pressure result is given as “moderate blood pressure lowering effect”.

As for `CC(C)OC(=O)C(C)(C)Oc1ccc(C(=O)c2ccc(Cl)cc2)cc1` [Fenofibrate, 2-[4-(4-chlorobenzoyl)phenoxy]-2-methyl-propanoic acid, 1-methylethyl ester, reference compound], in data set [1], the “very low-density lipoprotein (VLDL) cholesterol” value was “decreases in VLDL” and the HDL entry is reported as “increases in HDL”. In addition, the “nitric oxide levels” value in data set [2] is listed as “no increase in nitric oxide”. Also, the blood pressure result in the data set with L-NAME hypertensive rats is reported as “did not lower blood pressure”.

In the case of `CN(CCO)/[N+]([O-])=N/OCOC(=O)C(C)(C)Oc1ccc(C(=O)c2ccc(Cl)cc2)cc1` [Compound 6, (Z)-1-((2-(4-(4-chlorobenzoyl)phenoxy)-2-methylpropanoyloxy)methoxy)-3-(2-hydroxyethyl)-3-methyltriaz-1-ene 2-oxide], in data set [2], the “nitric oxide levels” value is recorded as “robust increase in nitric oxide levels”. Also, in the data set with normotensive rats, the blood pressure result was “lowering blood pressure”. Further, the vasorelaxant properties entry in the data set with rat aortic ring is “potent vasorelaxant properties in the nM range”.

Regarding `CN(CCCCO)/[N+]([O-])=N/OCOC(=O)C(C)(C)Oc1ccc(C(=O)c2ccc(Cl)cc2)cc1` [Compound 7, (Z)-1-((2-(4-(4-chlorobenzoyl)phenoxy)-2-methylpropanoyloxy)methoxy)-3-(4-hydroxybutyl)-3-methyltriaz-1-ene 2-oxide], the “nitric oxide levels” value in data set [2] is “robust increase in nitric oxide levels”. In addition, the blood pressure result in the data set with normotensive rats is reported as “lowering blood pressure”.

Values taken from patent US9024069B2, “NONOate derivatives and uses thereof” (Ironwood Pharmaceuticals, priority 2012, dated 2015).
